Measured values as given in article PMC4873368 (Cancer research, 2016).
Each block holds one molecule with its values, some of them ahead of it.

Assays:
human T cells [1] = assay: ConA-induced T cell expansion from human PBMCs; format: cell-based; settings: 168 h, read-out: EC50 T cells
A2780 cells = assay: A2780 cell proliferation screen; format: cell-based; settings: Homo sapiens, A2780, 72 h, read-out: EC50 A2780
Brpkp110 tumors = settings: trametinib 1.0 mg/kg oral gavage days 3-13, single intervention
human T cells [2] = assay: Human T cell proliferation with aAPCs; format: cell-based; settings: human PBMCs, 7 days
MEK = assay: Brpkp110 cells MEK signaling, Western blot; format: cell-based, mouse; settings: 8 nM or 200 nM trametinib, 18 hr
human T cells [3] = assay: Cytokine rescue of human T cell proliferation from trametinib; format: cell-based; settings: aAPCs, 200 nM trametinib, 7 days; IL-2 20 U/ml, IL-7 2 ng/ml, IL-15 10 ng/ml, IL-21 100 ng/ml, IL-27 50 ng/ml, ALT-803 35.7 ng/ml
ERK1/2 phosphorylation = assay: TCR ligation of human CD8 T cells, Western blot p-ERK1/2; format: cell-based; settings: within 10 minutes post-activation, trametinib 8 nM

Molecule: CN(C)CC[C@H](CSc1ccccc1)Nc1ccc(S(=O)(=O)NC(=O)c2ccc(N3CCN(Cc4ccccc4-c4ccc(Cl)cc4)CC3)cc2)cc1[N+](=O)[O-] [ABT-737]
- EC50 (human T cells [1]): 61 nM

Molecule: CN1CCN(CCOc2cc(OC3CCOCC3)c3c(Nc4c(Cl)ccc5c4OCO5)ncnc3c2)CC1 [AZD0530 (saracatinib), saracatinib]
- EC50 (A2780 cells): > 25000 nM

Molecule: CCN(CCCOc1ccc2c(Nc3cc(CC(=O)Nc4cccc(F)c4)n[nH]3)ncnc2c1)CCOP(=O)(O)O [AZD1152 (barasertib), barasertib]
- EC50 (A2780 cells): > 25000 nM

Molecule: Cn1cnc2c(F)c(Nc3ccc(Br)cc3Cl)c(C(=O)NOCCO)cc21 [AZD6244 (selumetinib), selumetinib]
- EC50 (A2780 cells): > 25000 nM

Molecule: Cc1cc([C@@H](C)Nc2ccccc2C(=O)O)c2nc(N3CCOCC3)cc(=O)n2c1 [AZD6482]
- EC50 (A2780 cells): > 25000 nM

Molecule: COc1ccc(-c2ccc3c(N4CCOC[C@@H]4C)nc(N4CCOC[C@@H]4C)nc3n2)cc1CO [AZD8055]
- EC50 (A2780 cells): 78.3 nM
- EC50 (human T cells [1]): 13.6 nM

Molecule: Cn1c(=O)n(-c2ccc(C(C)(C)C#N)cc2)c2c3cc(-c4cnc5ccccc5c4)ccc3ncc21 [BEZ235 (dactolisib), dactolisib]
- EC50 (A2780 cells): 21 nM
- EC50 (human T cells [1]): 2.4 nM

Molecule: CC(=O)Nc1cccc(-n2c(=O)n(C3CC3)c(=O)c3c(Nc4ccc(I)cc4F)n(C)c(=O)c(C)c32)c1 [GSK1120212 (trametinib), trametinib]
- Growth of Brpkp110 tumors (Brpkp110 tumors): significantly reduced the growth
- Proliferation of human T cells in response to aAPC coated with agonistic CD3 and CD28 antibodies (human T cells [2]): Comparable results
- Signaling through MEK in Brpkp110 cells (MEK): can be inhibited
- EC50 (A2780 cells): > 25000 nM

Molecule: IL-15: Recombinant human IL-15 (Novoprotein)
- Rescue of human T cell proliferation in the presence of trametinib (human T cells [3]): able to individually rescue the proliferation
- Rescue of TCR-induced ERK1/2 phosphorylation from MEK inhibition (ERK1/2 phosphorylation): can rescue

Molecule: IL-21: human IL-21 cytokine
- Rescue of human T cell proliferation in the presence of trametinib (human T cells [3]): no significant rescuing effect

B1: IL-27: human IL-27 (eBioscience) (protein, UniProt Q8NEV9 29-243; Q14213 21-229, looked up)
Interleukin-27 subunit alpha: FPRPPGRPQLSLQELRREFTVSLHLARKLLSEVRGQAHRFAESHLPGVNLYLLPLGEQLPDVSLTFQAWRRLSDPERLCFISTTLQPFHALLGGLGTQGRWTNMERMQLWAMRLDLRDLQRHLRFQVLAAGFNLPEEEEEEEEEEEEERKGLLPGALGSALQGPAQVSWPQLLSTYRLLHSLELVLSRAVRELLLLSKAGHSVWPLGFPTLSPQP
Interleukin-27 subunit beta: RKGPPAALTLPRVQCRASRYPIAVDCSWTLPPAPNSTSPVSFIATYRLGMAARGHSWPCLQQTPTSTSCTITDVQLFSMAPYVLNVTAVHPWGSSSSFVPFITEHIIKPDPPEGVRLSPLAERQLQVQWEPPGSWPFPEIFSLKYWIRYKRQGAARFHRVGPIEATSFILRAVRPRARYYVQVAAQDLTDYGELSDWSLPATATMSLGK
- Rescue of human T cell proliferation in the presence of trametinib (human T cells [3]): no significant rescuing effect

B2: IL-7: mouse IL-7 (Peprotech) (protein, UniProt P10168 26-154, looked up)
Interleukin-7: ECHIKDKEGKAYESVLMISIDELDKMTGTDSNCPNNEPNFFRKHVCDDTKEAAFLNRAARKLKQFLKMNISEEFNVHLLTVSQGTQTLVNCTSKEEKNVKEQKKNDACFLKRLLREIKTCWNKILKGSI
- Rescue of human T cell proliferation in the presence of trametinib (human T cells [3]): able to individually rescue the proliferation

Now from value to molecule:

- EC50 (A2780 cells): 155 nM
- EC50 (human T cells [1]): 0.237 nM
Molecule: COc1ncc(-c2ccc3nccc(-c4ccnnc4)c3c2)cc1NS(=O)(=O)c1ccc(F)cc1F [GSK2126458 (omipalisib), omipalisib]

- EC50 (A2780 cells): 2350 nM
- EC50 (human T cells [1]): 96 nM
Molecule: Cn1ncc(Cl)c1-c1cc(C(=O)N[C@H](CN)Cc2ccc(F)c(F)c2)oc1Cl [GSK2141795]

- EC50 (human T cells [1]): 25 nM
Molecule: Cc1[nH]c2ccccc2c1CCNCc1ccc(/C=C/C(=O)NO)cc1 [LBH589 (panobinostat), panobinostat]

- EC50 (A2780 cells): > 25000 nM
Molecule: CN(C)C(=O)c1cc2cnc(Nc3ccc(N4CCNCC4)cn3)nc2n1C1CCCC1 [LEE011]

- EC50 (A2780 cells): > 25000 nM
Molecule: COc1cc(Nc2ncc3c(n2)-c2ccc(Cl)cc2C(c2c(F)cccc2OC)=NC3)ccc1C(=O)O [MLN8237 (alisertib), alisertib]

- EC50 (A2780 cells): > 25000 nM
- EC50 (human T cells [1]): > 25000 nM
Molecule: C[C@]1(O)C[C@@H](c2nc(-c3ccc4ccc(-c5ccccc5)nc4c3)c3c(N)nccn32)C1 [OSI-906 (linsitinib), linsitinib]

- EC50 (human T cells [1]): 110 nM
Molecule: CC(=O)c1c(C)c2cnc(Nc3ccc(N4CCNCC4)cn3)nc2n(C2CCCC2)c1=O [PD0332991 (palbociclib), palbociclib]

- EC50 (A2780 cells): > 25000 nM
Molecule: CCCS(=O)(=O)Nc1ccc(F)c(C(=O)c2c[nH]c3ncc(-c4ccc(Cl)cc4)cc23)c1F [PLX4032 (vemurafenib), vemurafenib]
